Data: ChEMBL document CHEMBL1201862, “PubChem BioAssay data set” (2004)
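Where inhibition never reached the appropriate level, the endpoint shown equals the highest concentration tested. Otherwise, values were interpolated linearly from a five-concentration, 48-hour dose response in 96-well plates. GI50 = concentration required for 50% inhibition of growth.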 Calls of active or inactive are those of the source. Rule as the data show it: active = GI50 up to about 1.1 µM and inactive = higher.

Columns and labels:
Assay in all cases: growth of human tumour cells (NCI), 48 h
HT-29 = system: HT-29
CAKI-1 = system: CAKI-1
U-251 = system: U-251
MDA-MB-435 = system: MDA-MB-435
M14 = system: M14
SR = system: SR
SF-539 = system: SF-539
DU-145 = system: DU-145
MCF7 = system: MCF7
RXF 393 = system: RXF 393
RPMI-8226 = system: RPMI-8226
HCC 2998 = system: HCC 2998
HCT-15 = system: HCT-15
Hs-578T = system: Hs-578T
K562 = system: K562
LOX IMVI = system: LOX IMVI
IGROV-1 = system: IGROV-1
EKVX = system: EKVX
KM12 = system: KM12
MDA-N = system: MDA-N

Row | Structure (SMILES) | GI50 (HT-29) | GI50 (CAKI-1) | GI50 (U-251) | GI50 (MDA-MB-435) | GI50 (M14) | GI50 (SR) | GI50 (SF-539) | GI50 (DU-145) | GI50 (MCF7) | GI50 (RXF 393) | GI50 (RPMI-8226) | GI50 (HCC 2998) | GI50 (HCT-15) | GI50 (Hs-578T) | GI50 (K562) | GI50 (LOX IMVI) | GI50 (IGROV-1) | GI50 (EKVX) | GI50 (KM12) | GI50 (MDA-N)
1 | CCCOc1cc2c(cc1O)CC[C@@H]1[C@@H]2CC[C@]2(C)[C@@H](O)CC[C@@H]12 | 7.57 µM (inactive) | 2.81 µM (inactive) | 1.87 µM (inactive) | 0.284 µM (active) | 1.8 µM (inactive) | 0.209 µM (active) | 1.48 µM (inactive) | 3.27 µM (inactive) | 2.18 µM (inactive) | 2.25 µM (inactive) | 1.83 µM (inactive) | 4.56 µM (inactive) | 0.687 µM | 1.55 µM (inactive) | 0.209 µM (active) | 2.74 µM (inactive) | 5.48 µM (inactive) | 6.27 µM (inactive) | 4.15 µM (inactive) | 0.22 µM (active)
2 | C=C=C(CC1CCCCC1=O)S(=O)(=O)c1ccccc1 (stereo unspecified) | > 10 µM (inactive) | > 10 µM (inactive) | > 10 µM (inactive) | > 7.23 µM (inactive) | 3.12 µM (inactive) | 2.41 µM (inactive) | > 10 µM (inactive) | > 7.13 µM (inactive) | 3.23 µM (inactive) | > 9.62 µM (inactive) | 1.04 µM (active) | > 8.71 µM (inactive) | 4.52 µM | > 10 µM (inactive) | 1.69 µM (inactive) | > 4.78 µM (inactive) | > 10 µM (inactive) | > 10 µM (inactive) | – | > 7.13 µM (inactive)
3 | CCNC(=O)OCC1C2=C(C(=O)C(C)=C(N)C2=O)N2CC3C(N3C)C12OC (stereo unspecified) | 18.5 µM (inactive) | 3.95 µM (inactive) | 23.8 µM (inactive) | 75.7 µM (inactive) | 9.86 µM (inactive) | 1.48 µM (inactive) | 16.6 µM (inactive) | 4.1 µM (inactive) | 4.95 µM (inactive) | 32.5 µM (inactive) | 14.4 µM (inactive) | 14.6 µM (inactive) | 14.6 µM | > 100 µM (inactive) | 25.5 µM (inactive) | 13.7 µM (inactive) | 18.5 µM (inactive) | > 94.2 µM (inactive) | – | > 88.5 µM (inactive)
4 | CN(NC(=O)/C(=C/c1ccc(O)cc1)NC(=O)c1ccccc1)c1ccnc2cc(Cl)ccc12 | 6.4 µM (inactive) | 19.3 µM (inactive) | 14.8 µM (inactive) | 17.3 µM (inactive) | 19 µM (inactive) | 3.08 µM (inactive) | 23 µM (inactive) | 21.9 µM (inactive) | 13.6 µM (inactive) | 14.6 µM (inactive) | 13.4 µM (inactive) | 18.1 µM (inactive) | – | 19.2 µM (inactive) | 6.35 µM (inactive) | 18.8 µM (inactive) | 16.3 µM (inactive) | 18.2 µM (inactive) | 17.8 µM (inactive) | 17.4 µM (inactive)
5 | O=C(c1ccccc1)C1C(C(=O)c2ccccc2)C(c2ccccc2)N(c2ccccc2)C1c1ccccc1 (stereo unspecified) | – | > 100 µM (inactive) | > 100 µM (inactive) | > 100 µM (inactive) | > 100 µM (inactive) | > 100 µM (inactive) | > 100 µM (inactive) | > 100 µM (inactive) | > 100 µM (inactive) | > 100 µM (inactive) | 21.2 µM (inactive) | > 100 µM (inactive) | > 100 µM | 48 µM (inactive) | 46.7 µM (inactive) | > 100 µM (inactive) | > 100 µM (inactive) | > 100 µM (inactive) | – | > 100 µM (inactive)
6 | COC(=O)c1c(C)ccc2c(O)c3c(cc12)C(=O)c1c2c(cc(O)c1C3=O)C1(C)OC(C)(O2)C(O)C(N(C)C)C1O (stereo unspecified) | 0.577 µM (active) | 1.91 µM (inactive) | 0.667 µM (active) | 1.62 µM (inactive) | 1.85 µM (inactive) | 0.294 µM (active) | 2.21 µM (inactive) | 1.43 µM (inactive) | 1.28 µM (inactive) | 1.22 µM (inactive) | 0.946 µM (active) | 0.532 µM (active) | 1.46 µM | 1.86 µM (inactive) | 0.942 µM (active) | 1.24 µM (inactive) | 1.06 µM (active) | 2.37 µM (inactive) | 1.42 µM (inactive) | 1.45 µM (inactive)
7 | CCOC(CNc1nn2c(C)nnc2s1)OCC | > 100 µM (inactive) | > 100 µM (inactive) | > 100 µM (inactive) | > 100 µM (inactive) | > 100 µM (inactive) | > 100 µM (inactive) | > 100 µM (inactive) | > 100 µM (inactive) | > 100 µM (inactive) | > 100 µM (inactive) | > 100 µM (inactive) | > 100 µM (inactive) | > 100 µM | > 100 µM (inactive) | > 100 µM (inactive) | > 100 µM (inactive) | > 100 µM (inactive) | > 100 µM (inactive) | > 100 µM (inactive) | > 100 µM (inactive)
8 | CC1(C)CC[C@]2(C)CC=C3[C@]4(C)CC[C@H]5C(C)(C)C(=O)CC[C@]5(C)[C@H]4CC[C@@]3(C)[C@H]2C1 | > 100 µM (inactive) | > 100 µM (inactive) | > 100 µM (inactive) | > 100 µM (inactive) | > 100 µM (inactive) | > 100 µM (inactive) | > 100 µM (inactive) | > 100 µM (inactive) | > 100 µM (inactive) | > 100 µM (inactive) | > 100 µM (inactive) | > 100 µM (inactive) | > 100 µM | > 100 µM (inactive) | – | > 100 µM (inactive) | > 100 µM (inactive) | > 100 µM (inactive) | > 100 µM (inactive) | > 100 µM (inactive)
9 | CCO/C=N\C1=C(C#N)SC2=N/C(=C\c3ccco3)C(=O)N21 | > 100 µM (inactive) | > 100 µM (inactive) | > 100 µM (inactive) | > 100 µM (inactive) | > 100 µM (inactive) | > 100 µM (inactive) | > 100 µM (inactive) | > 100 µM (inactive) | > 100 µM (inactive) | > 100 µM (inactive) | > 100 µM (inactive) | > 100 µM (inactive) | > 100 µM | > 100 µM (inactive) | > 100 µM (inactive) | > 100 µM (inactive) | > 100 µM (inactive) | > 100 µM (inactive) | > 100 µM (inactive) | > 100 µM (inactive)
10 | O=C(O)C(O)C(O)C(O)C(O)CO.[Ba+2] (stereo unspecified) | > 100 µM (inactive) | > 100 µM (inactive) | > 100 µM (inactive) | > 100 µM (inactive) | > 100 µM (inactive) | > 100 µM (inactive) | > 100 µM (inactive) | > 100 µM (inactive) | > 100 µM (inactive) | > 100 µM (inactive) | > 100 µM (inactive) | > 100 µM (inactive) | > 100 µM | > 100 µM (inactive) | > 100 µM (inactive) | > 100 µM (inactive) | > 100 µM (inactive) | > 100 µM (inactive) | > 100 µM (inactive) | > 100 µM (inactive)
11 | CCOC(=O)C(=CNc1ccc(S(N)(=O)=O)cc1)C(=O)OCC | > 100 µM (inactive) | > 100 µM (inactive) | > 100 µM (inactive) | > 100 µM (inactive) | > 100 µM (inactive) | > 100 µM (inactive) | > 100 µM (inactive) | > 100 µM (inactive) | > 100 µM (inactive) | > 100 µM (inactive) | > 100 µM (inactive) | > 100 µM (inactive) | > 100 µM | > 100 µM (inactive) | > 100 µM (inactive) | > 100 µM (inactive) | > 100 µM (inactive) | > 100 µM (inactive) | – | > 100 µM (inactive)
12 | COC(=O)/C(C#N)=C(/NCc1ccccc1)Nc1ccccc1 | 87.7 µM (inactive) | > 100 µM (inactive) | > 100 µM (inactive) | > 100 µM (inactive) | 42.4 µM (inactive) | 53.8 µM (inactive) | > 100 µM (inactive) | > 100 µM (inactive) | > 100 µM (inactive) | > 100 µM (inactive) | 48.9 µM (inactive) | > 100 µM (inactive) | 83.2 µM | 68.5 µM (inactive) | 46.1 µM (inactive) | 61.2 µM (inactive) | > 100 µM (inactive) | 50.9 µM (inactive) | – | 46.9 µM (inactive)
13 | C=C1CC(c2ccc(OCCCN3C(=O)c4ccccc4C3=O)cc2)OC1=O (stereo unspecified) | 2.53 µM (inactive) | 2.37 µM (inactive) | 4 µM (inactive) | 2.52 µM (inactive) | 2.55 µM (inactive) | 3.05 µM (inactive) | 0.123 µM (active) | 4.75 µM (inactive) | 1.42 µM (inactive) | 1.99 µM (inactive) | 1.12 µM (inactive) | 3.78 µM (inactive) | 2.36 µM | 5.31 µM (inactive) | 1.52 µM (inactive) | 1.36 µM (inactive) | 1.06 µM (active) | 3.9 µM (inactive) | 3.83 µM (inactive) | 2.79 µM (inactive)
14 | COc1ccc(/N=C2\C(=O)Nc3ccc(Br)cc32)cc1 | 23.4 µM (inactive) | 14.4 µM (inactive) | 22.9 µM (inactive) | 13.2 µM (inactive) | 17.5 µM (inactive) | 3.58 µM (inactive) | 16.5 µM (inactive) | 32.3 µM (inactive) | 14.6 µM (inactive) | 18.2 µM (inactive) | 5.83 µM (inactive) | 19.2 µM (inactive) | 14.3 µM | 41.5 µM (inactive) | 8.67 µM (inactive) | 10.1 µM (inactive) | – | 17.2 µM (inactive) | 10.7 µM (inactive) | 13.9 µM (inactive)
